From US11524966B1 (Valo Early Discovery, Inc., priority 2017, dated 2022)

molecular target: T1, USP28 (His-tagged USP28-FL-mammalian) (Homo sapiens, UniProt Q96RU2); assay: Ubiquitin-Rhodamine 110 Assay for USP28 Activity, Example A-1(a); assay type: biochemical; conditions: Ubiquitin-Rhodamine 110 assay, Example A-1(a); read-out: USP28 A-1(a) IC50 range
T1 construct: Expression of USP28 (1-1077)-TEV-6*His (pTT5 vector); made in house; host or cells: Expi293f cells (pTT5 vector)
T1 sequence (Q96RU2 1-1077): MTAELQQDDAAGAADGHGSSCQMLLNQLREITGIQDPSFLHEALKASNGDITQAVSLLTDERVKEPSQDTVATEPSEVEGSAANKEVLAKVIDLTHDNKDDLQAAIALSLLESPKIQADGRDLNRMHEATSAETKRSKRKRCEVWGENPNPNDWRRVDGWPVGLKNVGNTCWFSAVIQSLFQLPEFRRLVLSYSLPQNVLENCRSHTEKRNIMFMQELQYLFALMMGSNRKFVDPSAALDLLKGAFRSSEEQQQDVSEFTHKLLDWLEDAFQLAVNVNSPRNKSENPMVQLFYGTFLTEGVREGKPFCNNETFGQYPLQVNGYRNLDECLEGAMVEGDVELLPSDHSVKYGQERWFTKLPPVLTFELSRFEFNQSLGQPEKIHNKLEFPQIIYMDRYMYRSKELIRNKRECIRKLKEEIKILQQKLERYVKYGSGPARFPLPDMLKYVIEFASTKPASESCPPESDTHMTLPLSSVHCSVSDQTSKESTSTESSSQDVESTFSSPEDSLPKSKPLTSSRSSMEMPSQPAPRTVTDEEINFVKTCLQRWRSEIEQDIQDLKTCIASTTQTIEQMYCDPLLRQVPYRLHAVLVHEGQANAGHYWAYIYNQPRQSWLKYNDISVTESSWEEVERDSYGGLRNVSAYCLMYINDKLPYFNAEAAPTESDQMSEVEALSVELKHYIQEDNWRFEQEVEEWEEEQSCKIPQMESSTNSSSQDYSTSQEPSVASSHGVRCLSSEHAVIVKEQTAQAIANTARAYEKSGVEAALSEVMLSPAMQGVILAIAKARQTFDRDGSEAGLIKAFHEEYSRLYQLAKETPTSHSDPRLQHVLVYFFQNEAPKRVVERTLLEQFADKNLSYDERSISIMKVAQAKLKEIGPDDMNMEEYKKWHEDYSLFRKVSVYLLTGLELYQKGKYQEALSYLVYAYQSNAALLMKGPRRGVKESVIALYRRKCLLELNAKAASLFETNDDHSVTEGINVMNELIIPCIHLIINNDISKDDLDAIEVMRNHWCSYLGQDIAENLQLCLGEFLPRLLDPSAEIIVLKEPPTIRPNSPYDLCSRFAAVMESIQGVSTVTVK
How it was run: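 IC50 from 4-parameter logistic fit of percent inhibition versus no-enzyme and DMSO controls; compounds 25 μM to 1.3 nM, 3-fold. Ub-Rh110 cleavage (25 nM, below Km) by […] mammalian-expressed USP28-FL-His ran 45 min at room temperature, stopped with 10 mM citric acid, read ex 485/em 535.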

Compared with CO[C@H]1CN(c2cc3c(cc2C#N)C[C@@H](NC(=O)c2sc4nc(C)ccc4c2N)CC3)C[C@@H]1N [Example 201, 3-amino-N-[(2S)-6-[(3S,4S)-3-amino-4-methoxypyrrolidin-1-yl]-7-cyano-1,2,3,4-tetrahydronaphthalen-2-yl]-6-methylthieno[2,3-b]pyridine-2-carboxamide], CO[C@H]1CN(c2ccc3c(n2)CC[C@H](NC(=O)c2sc4nc(C)c(F)cc4c2N)C3)C[C@@H]1N [Example 203, 3-amino-N-[(6S)-2-[(3S,4S)-3-amino-4-methoxypyrrolidin-1-yl]-5,6,7,8-tetrahydroquinolin-6-yl}-5-fluoro-6-methylthieno[2,3-b]pyridine-2-carboxamide] is higher in IC50: 1 to 50 nM for the first, 50 to 200 nM for the second.

Cc1ccc2c(N)c(C(=O)N[C@H]3COc4cc(N5C[C@H](OC(C)C)[C@@H](N)C5)ccc4C3)sc2n1 [Example 202, 3-amino-N-[(3R)-7-[(3S,4S)-3-amino-4-(propan-2-yloxy)pyrrolidin-1-yl]-3,4-dihydro-2H-1-benzopyran-3-yl]6-methylthieno[2,3-b]pyridine-2-carboxamide] and CN[C@H]1CN(c2ccc3c(c2)OC[C@H](NC(=O)c2sc4nc(C)ccc4c2N)C3)C[C@@H]1OC [Example 212, 3-amino-N-[(3R)-7-[(3S,4S)-3-methoxy-4-(methylamino)pyrrolidin-1-yl]-3,4-dihydro-2H-1-benzopyran-3-yl]-6-methylthieno[2,3-b]pyridine-2-carboxamide] fall in the same range of IC50: 1 to 50 nM for the first, 1 to 50 nM for the second.

Compared with Cc1nc2sc(C(=O)N[C@H]3CCc4nc(N5CCNCC5)ccc4C3)c(N)c2cc1F [Example 204, 3-amino-5-fluoro-6-methyl-N-[(6S)-2-(piperazin-1-yl)-5,6,7,8-tetrahydroquinolin-6-yl]thieno[2,3-b]pyridine-2-carboxamide], Cc1ccc2c(N)c(C(=O)N[C@H]3Cc4ccc(N5CCNCC5)nc4[C@@H](C)C3)sc2n1 [Example 206, 3-amino-6-methyl-N-[(6R,8S)-8-methyl-2-(piperazin-1-yl)-5,6,7,8-tetrahydroquinolin-6-yl]thieno[2,3-b]pyridine-2-carboxamide] is higher in IC50: 1 to 50 nM for the first, 50 to 200 nM for the second. The first is the more potent here.

Compared with Cc1ccc2c(N)c(C(=O)N[C@@H]3Cc4ccc(N5CCNCC5)nc4[C@H](C)C3)sc2n1 [Example 207, 3-amino-6-methyl-N-[(6S,8R)-8-methyl-2-(piperazin-1-yl)-5,6,7,8-tetrahydroquinolin-6-yl]thieno[2,3-b]pyridine-2-carboxamide], Cc1ccc2c(N)c(C(=O)N[C@H]3Cc4ccc(N5CCNCC5)nc4[C@H](C)C3)sc2n1 [Example 208, 3-amino-6-methyl-N-[(6R,8R)-8-methyl-2-(piperazin-1-yl)-5,6,7,8-tetrahydroquinolin-6-yl]thieno[2,3-b]pyridine-2-carboxamide] is lower in IC50: 200 to 2000 nM for the first, 1 to 50 nM for the second. The second is the more potent here.

Cc1ccc2c(N)c(C(=O)N[C@H]3COc4cc(N5C6CNCC5COC6)ccc4C3)sc2n1 [Example 209, 3-amino-6-methyl-N-[(3R)-7-{3-oxa-7,9-diazabicyclo[3.3.1]nonan-9-yl}-3,4-dihydro-2H-1-benzopyran-3-yl]thieno[2,3-b]pyridine-2-carboxamide] and Cc1ccc2c(N)c(C(=O)N[C@H]3COc4cc(N5CC[C@H]6CCNC[C@H]65)ccc4C3)sc2n1 [Example 224, N-[(3R)-7-[(3aR,7aS)-octahydro-1H-pyrrolo[2,3-c]pyridin-1-yl]-3,4-dihydro-2H-1-benzopyran-3-yl]-3-amino-6-methylthieno[2,3-b]pyridine-2-carboxamide] fall in the same range of IC50: 1 to 50 nM for the first, 1 to 50 nM for the second.

CO[C@@]1(C)CN(c2ccc3c(n2)CC[C@H](NC(=O)c2sc4nc(C)ccc4c2N)C3)C[C@@H]1N [Example 210, 3-amino-N-[(6S)-2-[(3S,4S)-4-amino-3-methoxy-3-methylpyrrolidin-1-yl]-5,6,7,8-tetrahydroquinolin-6-yl]-6-methylthieno[2,3-b]pyridine-2-carboxamide] and CO[C@]1(C)CN(c2ccc3c(n2)CC[C@H](NC(=O)c2sc4nc(C)ccc4c2N)C3)C[C@H]1N [Example 211, 3-amino-N-[(6S)-2-[(3R,4R)-4-amino-3-methoxy-3-methylpyrrolidin-1-yl]-5,6,7,8-tetrahydroquinolin-6-yl]-6-methylthieno[2,3-b]pyridine-2-carboxamide] fall in the same range of IC50: 50 to 200 nM for the first, 50 to 200 nM for the second.

First: CO[C@H]1CN(c2ccc3c(c2)OC[C@H](NC(=O)c2sc4nc(C)ccc4c2N)C3)C[C@@H]1NC(C)=O [Example 213, 3-amino-N-[(3R)-7-[(3S,4S)-3-acetamido-4-methoxypyrrolidin-1-yl]-3,4-dihydro-2H-1-benzopyran-3-yl]-6-methylthieno[2,3-b]pyridine-2-carboxamide]
Second: Cc1ccc2c(N)c(C(=O)N[C@H]3COc4cc(N5C[C@H](N)C(C)(C)C5)ccc4C3)sc2n1 [Example 214, 3-amino-N-[(3R)-7-[(4R)-4-amino-3,3-dimethylpyrrolidin-1-yl]-3,4-dihydro-2H-1-benzopyran-3-yl]-6-methylthieno[2,3-b]pyridine-2-carboxamide]
The IC50 of the first is higher: 50 to 200 nM for the first, 1 to 50 nM for the second.

Cc1ccc2c(N)c(C(=O)N[C@H]3COc4cc(N5C[C@@H](N)C(C)(C)C5)ccc4C3)sc2n1 [Example 215, 3-amino-N-[(3R)-7-[(4S)-4-amino-3,3-dimethylpyrrolidin-1-yl]-3,4-dihydro-2H-1-benzopyran-3-yl]-6-methylthieno[2,3-b]pyridine-2-carboxamide] and Cc1ccc2c(N)c(C(=O)N[C@H]3COc4cc(N5CC[C@@H]6CCNC[C@@H]65)ccc4C3)sc2n1 [Example 225] fall in the same range of IC50: 1 to 50 nM for the first, 1 to 50 nM for the second.

Cc1ccc2c(N)c(C(=O)N[C@H]3CCc4nc(N5CC[C@H]6CNC[C@H]65)ccc4C3)sc2n1 [Example 216, N-[(6S)-2-[(3aS,6aS)-octahydropyrrolo[2,3-c]pyrrol-1-yl}-5,6,7,8-tetrahydroquinolin-6-yl]-3-amino-6-methylthieno[2,3-b]pyridine-2-carboxamide] and Cc1ccc2c(N)c(C(=O)N[C@H]3CCc4nc(N5CC[C@@H]6CNC[C@@H]65)ccc4C3)sc2n1 [Example 217, N-[(6S)-2-[(3aR,6aR)-octahydropyrrolo[2,3-c]pyrrol-1-yl]-5,6,7,8-tetrahydroquinolin-6-yl]-3-amino-6-methylthieno[2,3-b]pyridine-2-carboxamide] fall in the same range of IC50: 1 to 50 nM for the first, 1 to 50 nM for the second.

Compared with Cc1cc(C)c2c(N)c(C(=O)N[C@H]3CCc4nc(N5CC[C@H]6CNC[C@H]65)ccc4C3)sc2n1 [Example 218, N-[(6S)-2-[(3aS 6aS)-octahydropyrrolo[2,3-c]pyrrol-1-yl]-5,6,7,8-tetrahydroquinolin-6-yl]-3-amino-4,6-dimethylthieno[2,3-b]pyridine-2-carboxamide], Cc1cc(C)c2c(N)c(C(=O)N[C@H]3CCc4nc(N5CC[C@@H]6CNC[C@@H]65)ccc4C3)sc2n1 [Example 219, N-[(6S)-2-[(3aR,6aR)-octahydropyrrolo[2,3-c]pyrrol-1-yl]-5,6,7,8-tetrahydroquinolin-6-yl]-3-amino-4,6-dimethylthieno[2,3-b]pyridine-2-carboxamide] is lower in IC50: 50 to 200 nM for the first, 1 to 50 nM for the second. The second is the more potent here.

Cc1ccc2c(N)c(C(=O)N[C@H]3COc4cc(N5CC[C@H]6CNC[C@H]65)cc(F)c4C3)sc2n1 [Example 220, N-[(3R)-7-[(3aS,6aS)-octahydropyrrolo[2,3-c]pyrrol-1-yl]-5-fluoro-3,4-dihydro-2H-1-benzopyran-3-yl]-3-amino-6-methylthieno[2,3-b]pyridine-2-carboxamide] and Cc1ccc2c(N)c(C(=O)N[C@H]3COc4cc(N5CC[C@@H]6CNC[C@@H]65)cc(F)c4C3)sc2n1 [Example 221, N-[(3R)-7-[(3aR,6aR)-octahydropyrrolo[2,3-c]pyrrol-1-yl]-5-fluoro-3,4-dihydro-2H-1-benzopyran-3-yl]-3-amino-6-methylthieno[2,3-b]pyridine-2-carboxamide] fall in the same range of IC50: 1 to 50 nM for the first, 1 to 50 nM for the second.

Work on Cc1cc(C)c2c(N)c(C(=O)N[C@H]3COc4cc(N5CC[C@H]6CNC[C@H]65)ccc4C3)sc2n1 [Example 226, N-[(3R)-7-[(3aS,6aS)-octahydropyrrolo[2,3-c]pyrrol-1-yl]-3,4-dihydro-2H-1-benzopyran-3-yl]-3-amino-4,6-dimethylthieno[2,3-b]pyridine-2-carboxamide] yielded an IC50 of 1 to 50 nM.
